The record followed here is US9423396B2, “Bodipy structure fluorescence probes for diverse biological applications” (National University of Singapore, priority 2011, dated 2016).

A short description of the data set: Spectroscopic measurements (absorption, emission, quantum yield, extinction coefficient). The data set is classed as physicochemical.
The mark [1] stands for this setting: absorption maximum, BDNCA library.
Where [2] appears, read: difference of emission and absorption maxima.
The mark [3] stands for this setting: extinction coefficient, BDNCA library; in M-1 cm-1 (unit assumed).
Where [4] appears, read: fluorescence emission maximum, BDNCA library.
[5] abbreviates: BDNCA library, extinction coefficient; in M-1 cm-1 (unit assumed).
The mark [6] stands for this setting: BDNCA library, fluorescence emission.
[7] abbreviates: BDNCA library, difference emission minus absorption.

The structures appear in SMILES notation.

`CC1=CC(/C=C/c2cc(C)c(C)cc2C)=[N+]2C1=C(c1ccc(NC(=O)CCl)cc1)c1cccn1[B-]2(F)F` [BDNCA-343] registered an Abs under setting [1] of 562 nm. The molecule also registered a Flu-Abs under setting [2] of 26. Further, the ε under setting [3] was 28,284. The molecule further registered a Flu under setting [4] of 588. The “Qunt. Yield” value (quantum yield, BDNCA library) came to 0.06.
As to `CC1=CC(/C=C/C=C/c2ccco2)=[N+]2C1=C(c1ccc(NC(=O)CCl)cc1)c1cccn1[B-]2(F)F` [BDNCA-417], the Abs under setting [1] stood at 519 nm. Also, the ε under setting [3] is listed as 13,730. In addition, the Flu result under setting [4] is listed as “weak”. For the same molecule, the “Qunt. Yield” value (quantum yield, BDNCA library) is recorded as “weak”.
In the case of `Cc1cc(/C=C/c2ccc(Br)cc2)n2c1C(c1ccc(NC(=O)CCl)cc1)=C1C=CC=[N+]1[B-]2(F)F` [BDNCA-409], the Abs under setting [1] amounted to 557 nm. Further, the Flu-Abs under setting [2] was 20. For the same molecule, the ε under setting [3] is recorded as 87,597. Further, under setting [4], the Flu worked out at 577. In addition, the “Qunt. Yield” value (quantum yield, BDNCA library) was found to be 0.14.
Turning to `CC1=CC(/C=C/c2c3ccccc3cc3ccccc23)=[N+]2C1=C(c1ccc(NC(=O)CCl)cc1)c1cccn1[B-]2(F)F` [BDNCA-6], the “Qunt. Yield” value (BDNCA library) is listed as “weak”. Moreover, the Abs (BDNCA library, absorption) is 536 nm. Besides, the ε under setting [5] is 41,465. For the same molecule, under setting [6], the Flu result is given as “weak”.
In the case of `CC1=CC(/C=C/c2ccc(OCc3ccccc3)c(OCc3ccccc3)c2)=[N+]2C1=C(c1ccc(NC(=O)CCl)cc1)c1cccn1[B-]2(F)F` [BDNCA-4], under “BDNCA library”, the “Qunt. Yield” value came out at 0.18. In addition, the Abs (BDNCA library, absorption) came out at 570 nm. Also, under setting [7], the Flu-Abs was 41. The ε under setting [5] is 79,908. This molecule displayed a Flu under setting [6] of 611.
In turn, `CC1=CC(/C=C/c2ccc(-c3ccccc3)c(F)c2)=[N+]2C1=C(c1ccc(NC(=O)CCl)cc1)c1cccn1[B-]2(F)F` [BDNCA-425] displayed an Abs under setting [1] of 562 nm. Moreover, the Flu-Abs under setting [2] is 21. Moreover, under setting [3], the ε is recorded as 46,957. In addition, under setting [4], the Flu is 583. Besides, the “Qunt. Yield” value (quantum yield, BDNCA library) is given as 0.11.
`Cc1cc(/C=C/c2ccc(OCc3ccc(Br)cc3)cc2)n2c1C(c1ccc(NC(=O)CCl)cc1)=C1C=CC=[N+]1[B-]2(F)F` [BDNCA-52]: the “Qunt. Yield” value (BDNCA library) is recorded as 0.05. For the same molecule, the Abs (BDNCA library, absorption) is 556 nm. Under setting [7], this molecule registered a Flu-Abs of 24. Under setting [5], the ε was 36,247. Moreover, the Flu under setting [6] was 580.
On the same counts, the results for `COc1cc(/C=C/C2=[N+]3C(=C(c4ccc(NC(=O)CCl)cc4)c4cccn4[B-]3(F)F)C(C)=C2)ccc1OCCBr` [BDNCA-268] are 0.12, 569 nm, 40, 54,371 and 609.
The like results for `CC1=CC(/C=C/C=C(c2ccccc2)c2ccccc2)=[N+]2C1=C(c1ccc(NC(=O)CCl)cc1)c1cccn1[B-]2(F)F` [BDNCA-85] were, in that order, 0.08, 583 nm, 31, 49,977 and 614.
As for `CC1=CC(/C=C/c2ccc(-c3cccc(Cl)c3)o2)=[N+]2C1=C(c1ccc(NC(=O)CCl)cc1)c1cccn1[B-]2(F)F` [BDNCA-284], the “Qunt. Yield” value (BDNCA library) was determined as 0.04. Where the note is “BDNCA library, absorption”, this molecule registered an Abs of 595 nm. The Flu-Abs under setting [7] is given as 42. For the same molecule, under setting [5], the ε is 31,579. This molecule gave a Flu under setting [6] of 637.
For `C=CCOc1ccccc1/C=C/C1=[N+]2C(=C(c3ccc(NC(=O)CCl)cc3)c3cccn3[B-]2(F)F)C(C)=C1` [BDNCA-202], the “Qunt. Yield” value (BDNCA library) came out at 0.13. Moreover, the Abs (BDNCA library, absorption) amounted to 561 nm. The same molecule registered a Flu-Abs under setting [7] of 24. The ε under setting [5] was 57,666. The Flu under setting [6] is 585.
On the same counts, the results for `Cc1cc(/C=C/c2ccc(CO)o2)n2c1C(c1ccc(NC(=O)CCl)cc1)=C1C=CC=[N+]1[B-]2(F)F` [BDNCA-238] are 0.05, 575 nm, 33, 40,366 and 608.
